The numbers were not newly measured in US6908924B2, “N4-acylcytosine-1,3-dioxolane nucleosides for treatment of viral infections” (Pharmasset, Inc., priority 2001, dated 2005), which cites them from elsewhere.

In general, Ki refers to a dissociation constant, usually derived from enzyme kinetics or from competition with a known ligand.

The subject of data set [1] is HIV-1. Particulars: as a reverse transcriptase inhibitor (RTI).
The target in data set [2] is HIV reverse transcriptase (HIV-RT) (Human immunodeficiency virus type 1 group M subtype B, UniProt P04585).

For the compound `Nc1nc(N)c2ncn([C@H]3CO[C@@H](CO)O3)c2n1` [DAPD, (−)-(2R,4R)-2-amino-9-[(2-hydroxymethyl)-1,3-dioxolan-4-yl]adenine], in data set [1], the “inhibition of HIV-1 replication in vitro” value is given as “selective inhibitor”.
Turning to `Nc1nc2c(ncn2[C@H]2CO[C@@H](COP(=O)(O)OP(=O)(O)OP(=O)(O)O)O2)c(=O)[nH]1` [DXG-TP], the Ki in data set [2] was 0.019 µM.
